# Measurements reported in patent US6656911B2, “Serine protease inhibitors” (Cortech, Inc., priority 1994, dated 2003).
# Molecular target: T1, human neutrophil elastase (HNE) (Homo sapiens, UniProt P08246)
# T1 sequence (P08246 30-267): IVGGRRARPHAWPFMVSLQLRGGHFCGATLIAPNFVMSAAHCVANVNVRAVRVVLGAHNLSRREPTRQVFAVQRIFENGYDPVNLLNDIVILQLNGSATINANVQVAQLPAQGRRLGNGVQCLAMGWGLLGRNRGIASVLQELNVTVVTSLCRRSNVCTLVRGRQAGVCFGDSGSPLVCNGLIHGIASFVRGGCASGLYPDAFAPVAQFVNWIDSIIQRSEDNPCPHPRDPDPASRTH
# Assay: HNE Ki of CE compounds, tested as described in WO 96/16080
# Format: biochemical
# Conditions: read-out: HNE Ki
row,Ki [nM],Molecule
1,0.42,"Cc1cccc(Cc2nnc(C(=O)[C@@H](NC(=O)Cn3c(-c4cccs4)ncc(N)c3=O)C(C)C)o2)c1 [CE2262, 2-[5-Amino-6-oxo-2-thiophenyl-1,6-dihydro-1-pyrimidinyl]-N-[1-(2-[5-(3-methylbenzyl)-1,3,4-oxadiazolyl]carbonyl)-2-(S)-methylpropyl]acetamide]"
2,300,"CC(C)[C@H](NC(=O)CN1C(=O)CN(Cc2ccccc2)C(=O)[C@@H]1Cc1ccccc1)C(=O)c1noc(Cc2cccc(C(F)(F)F)c2)n1 [CE2129, 4-[1-Benzyl-3-(S)-benzylpiperazine-2,5,-dione]-N-[1-(3-[5-(3-trifluoromethylbenzyl)-1,2,4-oxadiazolyl]carbonyl)-2-(S)-methylpropyl]acetamide]"
3,0.23,"Cc1cccc(Cc2nnc(C(=O)C(NC(=O)C3Cc4ccccc4CN3C(=O)C(NC(=O)OCc3ccccc3)C(C)C)C(C)C)o2)c1 [CE2183, Benzyloxycarbonyl-L-valyl-(1,2,3,4-tetrahydroisoquinoline)-3-N-[1-(2-[5-(3-methylbenzyl)-1,3,4-oxadiazolyl]carbonyl)-2-(R,S)-methylpropyl]amide]"
4,9.3,"Cc1cccc(Cc2nnc(C(=O)[C@@H](NC(=O)CN3C(=O)CN(Cc4ccccc4)C(=O)[C@H]3Cc3ccccc3)C(C)C)o2)c1 [CE2144, 4-[1-Benzyl-3-(R)-benzyl-piperazine-2,5,-dione]-N-[1-([5-(3-methylbenzyl)-1,3,4-oxadiazolyl]carbonyl)-2-(S)-methylpropyl]acetamide]"
5,11.5,"CC(=O)N1c2ccccc2C[C@H]1C(=O)N[C@H](C(=O)c1noc(Cc2cccc(C(F)(F)F)c2)n1)C(C)C [CE2143, Acetyl-2-L-(2,3-dihydro-1H-indole)-N-[1-(3-[5(3-trifluoromethylbenzyl)-1,2,4-oxadiazolyl]carbonyl)-2-(S)-methylpropyl]amide]"
6,586,"COC(=O)c1c(F)c2ccccc2n(CC(=O)N[C@H](C(=O)c2nnc(Cc3cccc(C)c3)o2)C(C)C)c1=O [CE2117, 3-Carbomethoxy-4-fluoro-quinoline-2-one-N-[1-(2-[5-(3-methylbenzyl)-1,3,4-oxadiazolyl]carbonyl)-2-(S)-methylpropyl]acetamide]"
7,22.7,"Cc1cccc(Cc2nnc(C(=O)[C@@H](NC(=O)CN(Cc3ccccc3)C(=O)Cc3ccccc3)C(C)C)o2)c1 [CE2210, (N-Benzylcarbonyl)-N-(benzyl)glycyl-N-[1-(2-[5-(3-methylbenzyl)-1,3,4,-oxadiazolyl]carbonyl)-2-(S)-methylpropyl]amide]"
8,1,"CC(C)[C@H](NC(=O)[C@@H]1CCCN1C(=O)[C@@H](NC(=O)OCc1ccccc1)C(C)C)C(=O)c1noc(Cc2ccc(N(C)C)cc2)n1 [CE2115, (Benzyloxycarbonyl)-L-valyl-N-[1-(3-[5-(4-dimethylaminobenzyl)-1,2,4-oxadiazolyl]carbonyl)-2-(S)-methylpropyl]-L-prolinamide]"
9,67,"CC(C)[C@H](NC(=O)CN1C(=O)CN(Cc2ccccc2)C(=O)[C@H]1Cc1ccccc1)C(=O)c1noc(Cc2cccc(C(F)(F)F)c2)n1 [CE2146, 4-[1-Benzyl-3-(R)-benzylpiperazine-2,5,-dione]-N-[1-(3-(5-(3-trifluoromethylbenzyl)-1,2,4-oxadiazolyl]carbonyl)-2-(S)-methylpropyl]acetamide]"
10,44,"CC(C)C(NC(=O)CN1C(=O)C(Cc2ccccc2)N(CCN2CCOCC2)C1=O)C(=O)c1noc(Cc2cccc(C(F)(F)F)c2)n1 [CE2180, 1-(N-Morpholinoethyl)-5-(R)-benzyl-2,4-imidazolidinedione-N-[1-(3-[5-(3-trifluoromethylbenzyl)-1,2,4-oxadiazolyl]carbonyl)-2-(R,S)-methylpropyl]acetamide]"
11,34,"Cc1cccc(Cc2nc(C(=O)C(NC(=O)CN3C(=O)C(N)N=C(c4ccccc4)c4ccccc43)C(C)C)no2)c1 [CE2221, (R,S)-3-Amino-2-oxo-5-phenyl-1,4-benzodiazepine-N-[1-(3-[5-(3-methylbenzyl)-1,2,4-oxadiazolyl]carbonyl)-2-(R,S)-methylpropyl]acetamide]"
12,0.15,"Cc1cccc(Cc2nnc(C(=O)[C@@H](NC(=O)[C@@H]3CCCN3C(=O)[C@@H](NS(=O)(=O)c3ccccc3)C(C)C)C(C)C)o2)c1 [CE2168, Phenylsulfonyl-L-valyl-N-[1-(2-[5-(3-methylbenzyl)-1,3,4-oxadiazolyl]carbonyl)-2-(S)-methylpropyl]-L-prolinamide]"

# The next lines start with the molecule.
row,Molecule,Ki [nM]
1,"Cc1cccc(Cc2nnc(C(=O)[C@@H](NC(=O)Cn3c(=O)c(NC(=O)OCc4ccccc4)cc4ccc(N5CCCCC5)cc43)C(C)C)o2)c1 [CE2107, 3-[(Benzyloxycarbonyl)amino]-7-piperidinyl-quinoline-2-one-N-[1-(2-[5-(3-methylbenzyl)-1,3,4-oxadiazolyl]carbonyl)-2-(S)-methylpropyl]acetamide]",17
2,"CC(C)[C@H](NC(=O)[C@@H]1CCCN1C(=O)[C@@H](NC(=O)OCc1ccccc1)C(C)C)C(=O)c1noc(Cc2cccc(-c3ccccc3)c2)n1 [CE2062, (Benzyloxycarbonyl)-L-valyl-N-[1-(3-[5{3-phenylbenzyl)-1,2,4-oxadiazolyl]carbonyl)-2-(S)-methylpropyl]-L-prolinamide]",0.3
3,"CC(C)[C@H](NC(=O)[C@@H]1CCCN1C(=O)[C@@H](NC(=O)OCc1ccccc1)C(C)C)C(=O)c1noc(Cc2ccc(-c3ccccc3)cc2)n1 [CE2058, (Benzyloxycarbonyl)-L-valyl-N-[1-(3-[5-(4-phenylbenzyl)-1,2,4-oxadiazolyl]carbonyl)-2-(S)-methylpropyl]-L-prolinamide]",0.564
4,"CC(C)[C@H](NC(=O)[C@@H]1CCCN1C(=O)[C@@H](NC(=O)OCc1ccccc1)C(C)C)C(=O)c1noc(Cc2cccnc2)n1 [CE2078, (Benzyloxycarbonyl)-L-valyl-N-[1-(3-[5-(3-pyridylmethyl)-1,2,4-oxadiazolyl]carbonyl)-2-(S)-methylpropyl]-L-prolinamide]",1.05
5,"(R,S)-3-Amino-2-oxo-5-phenyl-1,4-(6-2′-chlorobenzodiazepine)-N-[1-(2-[5-phenyl-1,3,4-oxadiazolyl]carbonyl)-2-(R,S)-propyl]acetamide [CE2211]",348
6,"CC(C)[C@H](NC(=O)[C@@H]1CCCN1C(=O)[C@@H](NC(=O)OCc1ccccc1)C(C)C)C(=O)c1nnc(Cc2cccc(C(F)(F)F)c2)o1 [CE2075, (Benzyloxycarbonyl)-L-valyl-N-[1-(2-[5-(3-trifluoromethylbenzyl)-1,3,4-oxadiazolyl]carbonyl)-2-(S)-methylpropyl]-L-prolinamide]",0.039
7,"COC(=O)c1ccc(C=C2C(=O)N(C(C)=O)CC(=O)N2CC(=O)N[C@H](C(=O)c2nnc(Cc3cccc(C)c3)o2)C(C)C)cc1 [CE2112, 1-Acetyl-3-(4-carbomethoxybenzylidene) piperazine-2,5-dione-N-[1-(2-[5-(3-methylbenzyl)-1,3,4-oxadiazolyl]carbonyl)-2-(S)-methylpropyl]acetamide]",1.2
8,"Cc1cccc(Cc2nnc(C(=O)[C@@H](NC(=O)[C@@H]3CCCN3C(=O)[C@@H](NC(=O)N3CCOCC3)C(C)C)C(C)C)o2)c1 [CE2104, (Morpholino-N-carbonyl)-L-valyl-N-[1-(2-[5-(3-methylbenzyl)-1,3,4-oxadiazolyl]carbonyl)-2-(S)-methylpropyl]-L-prolinamide]",0.33
